Test results reported in PMC8286619 (BMC Pharmacology & Toxicology, 2021).

Target: T1, xanthine oxidase (XO) (Bos taurus, UniProt P80457)
T1 construct: gene XDH
Test: biolayer interferometry, biotinylated XO on SA sensor (also activates the purified enzyme, EC50 […])
Assay type: binding

T1 sequence (P80457 2-1332): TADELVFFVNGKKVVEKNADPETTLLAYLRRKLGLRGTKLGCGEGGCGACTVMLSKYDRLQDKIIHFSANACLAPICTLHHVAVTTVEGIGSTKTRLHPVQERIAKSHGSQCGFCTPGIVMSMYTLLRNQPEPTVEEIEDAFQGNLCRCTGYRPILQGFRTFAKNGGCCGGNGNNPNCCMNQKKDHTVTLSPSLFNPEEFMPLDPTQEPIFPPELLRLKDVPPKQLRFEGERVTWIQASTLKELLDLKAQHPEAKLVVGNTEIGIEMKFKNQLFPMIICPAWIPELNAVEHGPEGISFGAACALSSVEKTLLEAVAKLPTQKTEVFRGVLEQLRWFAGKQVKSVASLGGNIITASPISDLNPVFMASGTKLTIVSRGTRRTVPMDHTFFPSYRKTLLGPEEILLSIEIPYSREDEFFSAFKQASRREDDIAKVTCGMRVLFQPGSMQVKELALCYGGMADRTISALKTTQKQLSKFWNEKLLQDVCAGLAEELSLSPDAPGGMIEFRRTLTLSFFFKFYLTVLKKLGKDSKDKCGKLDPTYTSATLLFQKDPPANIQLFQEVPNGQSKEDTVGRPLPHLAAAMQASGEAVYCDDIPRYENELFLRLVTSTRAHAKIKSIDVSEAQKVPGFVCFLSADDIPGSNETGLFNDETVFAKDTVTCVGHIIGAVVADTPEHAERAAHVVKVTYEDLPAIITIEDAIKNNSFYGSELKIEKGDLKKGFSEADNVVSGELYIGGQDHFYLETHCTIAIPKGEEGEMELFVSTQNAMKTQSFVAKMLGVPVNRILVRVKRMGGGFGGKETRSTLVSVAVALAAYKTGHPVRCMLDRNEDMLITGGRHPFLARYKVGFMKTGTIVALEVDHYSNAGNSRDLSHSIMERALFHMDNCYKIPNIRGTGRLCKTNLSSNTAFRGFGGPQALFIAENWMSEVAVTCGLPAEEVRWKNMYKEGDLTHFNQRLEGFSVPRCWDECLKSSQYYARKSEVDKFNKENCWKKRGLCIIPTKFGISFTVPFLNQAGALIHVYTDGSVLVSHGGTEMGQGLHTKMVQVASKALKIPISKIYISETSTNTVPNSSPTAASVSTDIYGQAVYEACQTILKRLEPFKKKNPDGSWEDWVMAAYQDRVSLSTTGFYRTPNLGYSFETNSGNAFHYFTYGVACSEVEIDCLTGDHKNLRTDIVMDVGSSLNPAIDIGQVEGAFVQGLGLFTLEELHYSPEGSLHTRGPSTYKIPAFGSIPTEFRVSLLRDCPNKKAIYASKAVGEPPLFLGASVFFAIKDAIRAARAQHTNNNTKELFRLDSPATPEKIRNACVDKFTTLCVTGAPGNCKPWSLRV

CC1=CC(=O)c2c(O)cccc2C1=O [PLB, Plumbagin]
Kd: 499 nM
